Laboratory results as given in patent US20260007613A1, “LONG-ACTING LOW-TOXICITY NOVEL CATIONIC LIPID COMPOUNDS AND COMPOSITION THEREOF” (BEIJING YOUCAREKECHUANG PHARMACEUTICAL TECHNOLOGY CO., LTD., priority 2023, published 2026).

Columns and labels:
293T cells [1] = experiment: Fluorescent detection of Fluc-mRNA (cell transfection efficiency of LNP formulations); format: cell-based; settings: for Relative light unit (RLU): LNP formulation of Fluc-mRNA, 96-well plate, 24 hours; for Multiples (YK-305): RLU of YK-305 / RLU of the lipid of the line; for Multiples (YK-310): RLU of YK-310 / RLU of the lipid of the line; for Multiples (YK-312): RLU of YK-312 / RLU of the lipid of the line; for Multiples (YK-318): RLU of YK-318 / RLU of the lipid of the line; for Multiples (YK-318) / Multiples (YK-319): Tables 5, 7, 11; for Multiples (YK-319): RLU of YK-319 / RLU of the lipid of the line; for Ratio relative to SM-102: RLU of the lipid / RLU of SM-102, times that of SM-102
Method: (§1) Cell recovery and passage: 293T cells were recovered, cultured in a culture dish, and passaged to the required number of cells.
(§2) Seeding plate: The cells in the culture dish were digested and counted. Cells were spread in a 96-well plate at 10,000 cells per well and in a 12-well plate at 150,000 cells per well. Cells were cultured overnight until the cells adhered to the wall.
(§3) Cell recovery and passage: the method was the same as in Example 3.
(§4) Seeding plate: the method was the same as in Example 3.
An LNP formulation containing […] of Fluc-mRNA (the carrier components of the LNP formulation were cationic lipid, neutral lipid, structured lipid and polymer-conjugated lipid with a molar ratio of 49:10:39.5:1.5, wherein the cationic lipid was listed in Table 1) was added to the cell culture medium of a 96-well plate, and further incubated for 24 hours. The corresponding reagent was added according to the instructions of the […] Luciferase Assay Kit, and the fluorescence expression intensity of each well was detected by an IVIS fluorescence detection system. This test verified the transfection efficiencies of LNP formulations in cells, see Tables 4-7 for specific test results.

[2] = Particle size and polydispersity index (PDI) of lipid nanoparticles by dynamic light scattering; format: physicochemical; settings: LNP formulation prepared from the cationic lipid, 25° C.
Method: The particle size and polydispersity index (PDI) were determined by dynamic light scattering using Malvern laser particle size analyzer.
10 μL of the liposome solution was weighed, diluted to 1 mL with RNase-free deionized water, and added to the sample pool. Each sample was measured in triplicate. The measurement conditions were: […] scattering angle, and 25° C.

293T cells [3] = experiment: Cell survival rate determination (CCK-8); format: cell-based; settings: LNP formulation of Fluc-mRNA, 24 hours, CCK-8
Method: as §1, §2, §3, §4
An LNP formulation containing […] of Fluc-mRNA (the carrier components of the LNP formulation were cationic lipid, neutral lipid, structured lipid and polymer-conjugated lipid with a molar ratio of 49:10:39.5:1.5, wherein the cationic lipid was listed in Table 1) and the formulation of Lipofectamine 3000 were added to the cell culture medium of a 96-well plate, and further cultivated for 24 hours. 10 μL of CCK-8 solution was then added to each well, and the culture plate was incubated in an incubator for 1 hour. The absorbance at 450 nm was measured by a microplate reader.
Cell survival rate can represent the toxicity of cationic lipids to cells. The higher the cell survival rate, the lower the toxicity to cells.

Row | Structure (SMILES) | Relative light unit (RLU) (293T cells [1]) | Multiples (YK-305) (293T cells [1]) | Multiples (YK-310) (293T cells [1]) | Multiples (YK-312) (293T cells [1]) | Multiples (YK-318) (293T cells [1]) | Multiples (YK-319) (293T cells [1]) | Ratio relative to SM-102 (293T cells [1]) | PDI (%) [2] [%] | Particle size (nm) [2] [nm] | Cell survival rate (%) (293T cells [3]) | Cell survival rate (%) (293T cells [3]; listed as YK 303)
1 | CCCCCCC(CCCCCC)CCOC(=O)CCCCCN(CCCCCC(=O)OCCC(CCCCCC)CCCCCC)C[C@H](O)CN(CCO)CCO [YK-317, (S)-Bis(3-hexylnonyl)-6,6′-((3-(bis(2-hydroxyethyl)amino)-2-hydroxypropyl)azanediyl)dihexanoate] | 3605054 | 7.60 | 7.16 | 5.59 | 3.10 | 6.79 | 2.25 | 16.4 | 255 | 59.18 | –
2 | CCCCCCCCCCOC(=O)CCCN(CCCCCC(=O)OCC(CCCCCCCC)CCCCCCCC)C[C@H](O)CN(CC)CCO [YK-308] | 5036582 | 5.44 | 5.12 | 4.00 | – | – | 3.14 | 13.4 | 211 | 70.99 | –
3 | CCCCCCC(CCCCCC)CCOC(=O)CCCCCN(CCCCCC(=O)OCCC(CCCCCC)CCCCCC)C[C@H](O)CN(C)CCO [YK-306, (R)-bis(3-hexylnonyl)-6,6′-((2-hydroxy-3-((2-hydroxyethyl)(methyl)amino)propyl)azanediyl)dihexanoate] | 2197174 | 12.47 | 11.14 | 9.17 | 5.09 | 11.14 | – | 13.6 | 228 | 42.19 | –
4 | CCCCCCCCCCC(CCCCCCCCCC)CCCOC(=O)CCCN(CCCC(=O)OCCCC(CCCCCCCCCC)CCCCCCCCCC)C[C@H](O)CN(C)CCO [YK-307] | 4557420 | 6.01 | 5.66 | 4.42 | 2.46 | 5.37 | – | 32.2 | 210 | 61.14 | –
5 | CCCCCCCCCCOC(=O)CCCN(CCCCCC(=O)OCC(CCCCCCCC)CCCCCCCC)C[C@H](O)CN(C)CCO [YK-301, (R)-2-octyldecyl-6-((4-(decyloxy)-4-oxobutyl)((2-hydroxy-3-(2-hydroxyethyl)(methyl)amino)propyl)amino)hexanoate] | 842452 | 32.53 | 30.62 | 23.92 | 13.28 | 29.04 | – | 7.0 | 192 | 52.96 | –
6 | CCCCCCCCCCCOC(=O)CCCCCN(CCCC(=O)OCCCC(CCCCCCCCCC)CCCCCCCCCC)C[C@H](O)CN(C)CCO [YK-303, (R)-undecyl-6-(4-(4-decyltetradecyloxy)-4-oxobutyl)((2-hydroxy-3-((2-hydroxyethyl)(methyl)amino)propyl)amino)hexanoate] | 626314 | 43.76 | 41.19 | 32.17 | 17.87 | 39.07 | – | – | – | 82.18 | 63.32
